In ChEMBL document CHEMBL4138123, “Design, synthesis and biological evaluation of novel pyrazolochalcones as potential modulators of PI3K/Akt/mTOR pathway and inducers of apoptosis in breast cancer cells” (Eur J Med Chem, 2017):

Tests used:
Type in all cases: functional
OVCAR-4 [1] = assay: Cytotoxicity against human OVCAR4 cells assessed as cell growth at 100 uM after 48 hrs by sulforhodamine B assay relative to control; settings: OVCAR-4, 48 h, read-out: Activity
BT-549 [2] = assay: Cytotoxicity against human BT549 cells assessed as growth inhibition after 48 hrs by sulforhodamine B assay; settings: BT-549, 48 h
PC-3 [3] = assay: Cytotoxicity against human PC3 cells assessed as cell growth at 1 uM after 48 hrs by sulforhodamine B assay relative to control; settings: PC-3, 48 h, read-out: Activity
DU-145 = assay: Cytotoxicity against human DU145 cells assessed as growth inhibition after 48 hrs by sulforhodamine B assay; settings: DU-145, 48 h
OVCAR-3 = assay: Cytotoxicity against human OVCAR3 cells assessed as cell growth at 0.01 uM after 48 hrs by sulforhodamine B assay relative to control; settings: OVCAR-3, 48 h, read-out: Activity
PC-3 [4] = assay: Cytotoxicity against human PC3 cells assessed as cell growth at 100 uM after 48 hrs by sulforhodamine B assay relative to control; settings: PC-3, 48 h, read-out: Activity
BT-549 [5] = assay: Cytotoxicity against human BT549 cells assessed as cell growth at 100 uM after 48 hrs by sulforhodamine B assay relative to control; settings: BT-549, 48 h, read-out: Activity
Malme-3M = assay: Cytotoxicity against human MALME-3M cells assessed as cell growth at 0.1 uM after 48 hrs by sulforhodamine B assay relative to control; settings: read-out: Activity
SNB-19 = assay: Cytotoxicity against human SNB19 cells assessed as growth inhibition after 48 hrs by sulforhodamine B assay; settings: SNB-19, 48 h
ACHN = assay: Cytotoxicity against human ACHN cells assessed as cell growth at 0.01 uM after 48 hrs by sulforhodamine B assay relative to control; settings: read-out: Activity
MCF7 [6] = assay: Cytotoxicity against human MCF7 cells assessed as cell growth at 0.1 uM after 48 hrs by sulforhodamine B assay relative to control; settings: MCF7, 48 h, read-out: Activity
786-0 = assay: Cytotoxicity against human 786-0 cells assessed as cell growth at 0.1 uM after 48 hrs by sulforhodamine B assay relative to control; settings: 786-0, 48 h, read-out: Activity
NCI-H522 [7] = assay: Cytotoxicity against human NCI-H522 cells assessed as cell growth at 10 uM after 48 hrs by sulforhodamine B assay relative to control; settings: NCI-H522, 48 h, read-out: Activity
MDA-MB-435 [8] = assay: Cytotoxicity against human MDA-MB-435 cells assessed as cell growth at 100 uM after 48 hrs by sulforhodamine B assay relative to control; settings: MDA-MB-435, 48 h, read-out: Activity
MCF7 [9] = assay: Cytotoxicity against human MCF7 cells assessed as cell growth at 10 uM after 48 hrs by sulforhodamine B assay relative to control; settings: MCF7, 48 h, read-out: Activity
HCT-116 = assay: Cytotoxicity against human HCT116 cells assessed as cell growth at 0.1 uM after 48 hrs by sulforhodamine B assay relative to control; settings: HCT-116, 48 h, read-out: Activity
SW-620 = assay: Cytotoxicity against human SW620 cells assessed as cell growth at 0.1 uM after 48 hrs by sulforhodamine B assay relative to control; settings: SW-620, 48 h, read-out: Activity
UACC-62 [10] = assay: Cytotoxicity against human UACC62 cells assessed as cell growth at 100 uM after 48 hrs by sulforhodamine B assay relative to control; settings: UACC-62, 48 h, read-out: Activity
RXF 393 [11] = assay: Cytotoxicity against human RXF393 cells assessed as cell growth at 1 uM after 48 hrs by sulforhodamine B assay relative to control; settings: RXF 393, 48 h, read-out: Activity
UACC-257 [12] = assay: Cytotoxicity against human UACC257 cells assessed as growth inhibition after 48 hrs by sulforhodamine B assay; settings: UACC-257, 48 h
T47D = assay: Cytotoxicity against human T47D cells assessed as cell growth at 10 uM after 48 hrs by sulforhodamine B assay relative to control; settings: read-out: Activity
OVCAR-4 [13] = assay: Cytotoxicity against human OVCAR4 cells assessed as growth inhibition after 48 hrs by sulforhodamine B assay; settings: OVCAR-4, 48 h
RXF 393 [14] = assay: Cytotoxicity against human RXF393 cells assessed as growth inhibition after 48 hrs by sulforhodamine B assay; settings: RXF 393, 48 h
SF-268 = assay: Cytotoxicity against human SF268 cells assessed as cell growth at 1 uM after 48 hrs by sulforhodamine B assay relative to control; settings: SF-268, 48 h, read-out: Activity
MDA-MB-435 [15] = assay: Cytotoxicity against human MDA-MB-435 cells assessed as cell growth at 10 uM after 48 hrs by sulforhodamine B assay relative to control; settings: MDA-MB-435, 48 h, read-out: Activity
UACC-62 [16] = assay: Cytotoxicity against human UACC62 cells assessed as cell growth at 0.1 uM after 48 hrs by sulforhodamine B assay relative to control; settings: UACC-62, 48 h, read-out: Activity
Hs-578T [17] = assay: Cytotoxicity against human Hs 578T cells assessed as growth inhibition after 48 hrs by sulforhodamine B assay
U-251 [18] = assay: Cytotoxicity against human U251 cells assessed as growth inhibition after 48 hrs by sulforhodamine B assay; settings: U-251, 48 h
NCI-H322M = assay: Cytotoxicity against human NCI-H322M cells assessed as cell growth at 10 uM after 48 hrs by sulforhodamine B assay relative to control; settings: read-out: Activity
Hs-578T [19] = assay: Cytotoxicity against human Hs 578T cells assessed as cell growth at 0.1 uM after 48 hrs by sulforhodamine B assay relative to control; settings: read-out: Activity
HL-60(TB) = assay: Cytotoxicity against human HL-60(TB) cells assessed as cell growth at 0.1 uM after 48 hrs by sulforhodamine B assay relative to control; settings: HL-60, 48 h, read-out: Activity
U-251 [20] = assay: Cytotoxicity against human U251 cells assessed as cell growth at 0.1 uM after 48 hrs by sulforhodamine B assay relative to control; settings: U-251, 48 h, read-out: Activity
UACC-257 [21] = assay: Cytotoxicity against human UACC257 cells assessed as cell growth at 0.1 uM after 48 hrs by sulforhodamine B assay relative to control; settings: UACC-257, 48 h, read-out: Activity
NCI-H522 [22] = assay: Cytotoxicity against human NCI-H522 cells assessed as cell growth at 0.01 uM after 48 hrs by sulforhodamine B assay relative to control; settings: NCI-H522, 48 h, read-out: Activity
UACC-257 [23] = assay: Cytotoxicity against human UACC257 cells assessed as cell growth at 0.01 uM after 48 hrs by sulforhodamine B assay relative to control; settings: UACC-257, 48 h, read-out: Activity
[24] = read-out: LC50 (the source's name)

COc1ccc(-c2cc(/C=C/C(=O)c3ccc(N)cc3)[nH]n2)cc1
growth at 100 µM (OVCAR-4 [1]): -68% | GI50 (BT-549 [2]): 1740 nM | LC50 (concentration killing 50% of cells) (BT-549 [2]): 36.3 µM | TGI (BT-549 [2]): 4.78 µM | growth at 1 µM (PC-3 [3]): 81% | GI50 (DU-145): 1320 nM | TGI (DU-145): 3.46 µM | CC50 (DU-145; [24]): 9.11 µM | growth at 0.01 µM (OVCAR-3): 104% | growth at 100 µM (PC-3 [4]): -83% | growth at 100 µM (BT-549 [5]): -61% | growth at 0.1 µM (Malme-3M): 86% | GI50 (SNB-19): 2290 nM | TGI (SNB-19): 11.6 µM | CC50 (SNB-19; [24]): 44.3 µM | growth at 0.01 µM (ACHN): 103% | growth at 0.1 µM (MCF7 [6]): 94% | growth at 0.1 µM (786-0): 95% | growth at 10 µM (NCI-H522 [7]): -70% | growth at 100 µM (MDA-MB-435 [8]): -75% | growth at 10 µM (MCF7 [9]): -30% | growth at 0.1 µM (HCT-116): 105% | growth at 0.1 µM (SW-620): 101% | growth at 100 µM (UACC-62 [10]): -93% | growth at 1 µM (RXF 393 [11]): 78% | GI50 (UACC-257 [12]): 1900 nM | LC50 (UACC-257 [12]): 9.36 µM | TGI (UACC-257 [12]): 4.21 µM | growth at 10 µM (T47D): -1% | GI50 (OVCAR-4 [13]): 1080 nM | LC50 (OVCAR-4 [13]): 51.2 µM | TGI (OVCAR-4 [13]): 8.01 µM | GI50 (RXF 393 [14]): 1670 nM | LC50 (concentration killing 50% of cells) (RXF 393 [14]): 15 µM | TGI (RXF 393 [14]): 4.19 µM | growth at 1 µM (SF-268): 78% | growth at 10 µM (MDA-MB-435 [15]): -16% | growth at 0.1 µM (UACC-62 [16]): 97% | GI50 (Hs-578T [17]): 4.04 µM | LC50 (Hs-578T [17]): > 100 µM | TGI (Hs-578T [17]): 24.4 µM | GI50 (U-251 [18]): 1240 nM | LC50 (U-251 [18]): 5.3 µM | TGI (U-251 [18]): 2570 nM | growth at 10 µM (NCI-H322M): -2% | growth at 0.1 µM (Hs-578T [19]): 97% | growth at 0.1 µM (HL-60(TB)): 97% | growth at 0.1 µM (U-251 [20]): 90% | growth at 0.1 µM (UACC-257 [21]): 97% | growth at 0.01 µM (NCI-H522 [22]): 84% | growth at 0.01 µM (UACC-257 [23]): 96%
